Experimental data from publication PMC11361161 (BMC Chemistry, 2024).
Read-outs that look alike come from different tables or passages of the source.

Target: human thymidylate synthase (hTS) (Homo sapiens, UniProt P04818)
Experiment: Thymidylate synthase inhibitory assay
Type: biochemical

Sequence of human thymidylate synthase (hTS) (P04818 whole entry): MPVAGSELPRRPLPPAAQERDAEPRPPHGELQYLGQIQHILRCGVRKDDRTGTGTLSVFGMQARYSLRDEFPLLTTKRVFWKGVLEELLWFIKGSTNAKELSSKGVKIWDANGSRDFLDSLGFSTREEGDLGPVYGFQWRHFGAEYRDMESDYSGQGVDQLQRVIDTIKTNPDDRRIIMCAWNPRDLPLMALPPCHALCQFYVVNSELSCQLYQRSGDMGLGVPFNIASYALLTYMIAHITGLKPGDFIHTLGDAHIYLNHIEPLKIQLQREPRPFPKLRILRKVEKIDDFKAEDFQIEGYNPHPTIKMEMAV

Molecule | IC50 (read-out: In vitro thymidylate synthase (TS) IC50, 30 °C, pH 7.4, 30 nM hTS, absorbance at 340 nm, mean ± SEM, triplicate) [nM] | IC50 [nM]
7-(4-methoxyphenyl)-1,3-dimethyl-5-(naphthalen-2-yl)pyrido[2,3-d]pyrimidine-2,4(1 H,3 H)-dione [Compound 2n] | 13.5 ± 0.96 | –
COc1ccc(-c2cc(-c3ccc(N(C)C)cc3)c3c(=O)[nH]c(=O)[nH]c3n2)cc1 [Compound 1j, 5-(4-(dimethylamino)phenyl)-7-(4-methoxyphenyl)pyrido[2,3-d]pyrimidine-2,4(1 H,3 H)-dione] | – | 20.5 ± 1.09
COc1ccc(-c2cc(-c3ccc4ccccc4c3)c3c(=O)[nH]c(=O)[nH]c3n2)cc1 [Compound 1n, 7-(4-methoxyphenyl)-5-(naphthalen-2-yl)pyrido[2,3-d]pyrimidine-2,4(1 H,3 H)-dione] | – | 20.5 ± 1.09
COc1ccc(-c2cc(-c3ccc(N(C)C)cc3)c3c(=O)n(C)c(=O)n(C)c3n2)cc1 [Compound 2j, 5-(4-(dimethylamino)phenyl)-7-(4-methoxyphenyl)-1,3-dimethylpyrido[2,3-d]pyrimidine-2,4(1 H,3 H)-dione] | – | 13.5 ± 0.96
